Results as given in ChEMBL document CHEMBL1148744, “Synthesis and antiviral and cytostatic evaluations of the new C-5 substituted pyrimidine and furo[2,3-d]pyrimidine 4',5'-didehydro-L-ascorbic acid derivatives” (J Med Chem, 2007).
In brackets after ≈: the same amount, converted by molar mass.

tested on: Vaccinia virus; assay: Antiviral activity against Vaccinia virus in HEL cells assessed as reduction of virus-induced cytopathogenicity; type: functional; details: Orthopoxvirus vaccinia

Row | SMILES | MIC [µM]
1 | Nc1nc2c(ncn2COCCO)c(=O)[nH]1 [ACYCLOVIR] | > 250
2 | O=c1[nH]c(=O)n([C@H]2C[C@H](O)[C@@H](CO)O2)cc1/C=C/Br [BRIVUDINE] | 2 (≈ 0.666 µg/mL)
3 | Nc1nc2c(ncn2COC(CO)CO)c(=O)[nH]1 [GANCICLOVIR] | 100 (≈ 25.5 µg/mL)
4 | NC(=O)c1ncn([C@@H]2O[C@H](CO)[C@@H](O)[C@H]2O)n1 [RIBAVIRIN] | 150 (≈ 36.6 µg/mL)
